Data published in patent US20260240171A1, “BACTERICIDAL COMPOSITION COMPRISING BACILLUS VELEZENSIS TCS001 AND USE THEREOF” (priority 2023, published 2026).

How the values were obtained:
[1] = tested on: strawberry gray mold-causing pathogen; assay: Indoor toxicity determination against strawberry gray mold on strawberry fruits; type: in vivo; details: after 4 days
Protocol: Bacillus velezensis TCS001, boscalid, and a mixture of Bacillus velezensis TCS001 and boscalid were diluted to the test doses. Healthy strawberry fruits were used as the test material. The strawberry fruits were immersed in the agent solution for 20 s. Each treatment had 3 replicates, with 9 fruits per replicate, and all fruits were uniformly punctured to a size of 5 mm×5 mm. A spore suspension of strawberry gray mold-causing pathogen at 1*10^5 spores/mL was prepared. After 24 h, the strawberry fruits treated with the agent solution were surface-sprayed with the spore suspension of strawberry gray mold-causing pathogen for inoculation. The strawberry fruits were placed in a high-humidity environment (RH 90-95%) and cultured at a constant temperature of 22° C. After 4 days, the lesion diameter was measured, and the inhibition rate (%) was calculated.
Inhibition rate (%)=(Diameter of colony in blank control−Diameter of colony in treatment)/Diameter of colony in blank control×100.
[formula] • X: inhibition rate of A at a dose of P; • Y: inhibition rate of B at a dose of Q; • E0: theoretical inhibition rate of A+B at a dose of (P+Q); and • E: actual inhibition rate of each treatment.
The Colby method was used to evaluate the synergistic effect of the combination. When E−E0>5%, a synergistic effect was indicated; when E−E0<−5%, an antagonistic effect was indicated; when the value of E−E0 was within ±5%, an additive effect was indicated.

[2] = tested on: Bacillus velezensis TCS001; assay: Affinity screening of Bacillus velezensis TCS001 and boscalid; type: cell-based; details: boscalid concentration 400 mg/L in LB plates, 28° C.
Protocol: Preparation of Bacillus velezensis TCS001 seed culture: 1,000 mL of LB solid medium (27 mL×30 vials) and 150 mL of LB liquid medium were prepared and sterilized; a single colony of Bacillus velezensis TCS001 was inoculated into the LB liquid medium and cultured in a shaker at 25° C., 164 rpm, for 16 h.
Preparation of toxin-containing medium: technical grade boscalid was dissolved in DMF to prepare a 10% stock solution for later use, which was diluted with sterile water containing 1%. Tween-80 to 10 times the test dose; 3 mL of the agent solution was sequentially pipetted from low concentration to high concentration, added to 27 mL of LB medium, thoroughly shaken, and equally poured into two culture dishes with a diameter of 9 cm to prepare agent-containing plates at corresponding concentrations. Each treatment had 2 replicates.
Affinity screening: the shaken Bacillus velezensis TCS001 seed culture was diluted to 1×10^6 CFU/mL; 40 μL was pipetted and spread onto the agent-containing plates and the control group plates, and incubated in a dark incubator at 28° C. The growth status of TCS001 was observed.

Compound: O=C(Nc1ccccc1-c1ccc(Cl)cc1)c1cccnc1Cl [Boscalid]
- Lesion Diameter ([1]; 10 mg/L): 1.77 cm
- Lesion Diameter ([1]; 12.5 mg/L): 1.73 cm
- Lesion Diameter ([1]; 16 mg/L): 1.66 cm
- Lesion Diameter ([1]; 25 mg/L): 1.14 cm
- Lesion Diameter ([1]; 33 mg/L): 1.04 cm
- Lesion Diameter ([1]; 50 mg/L): 0.99 cm
- Lesion Diameter ([1]; 100 mg/L): 0.85 cm
- Lesion Diameter ([1]; 160 mg/L): 0.56 cm
- inhibition at 10 µg/mL ([1]; 96 h, 10 mg/L, read-out: Actual Inhibition Rate E): 34.4%
- inhibition at 12.5 µg/mL ([1]; 96 h, 12.5 mg/L, read-out: Actual Inhibition Rate E): 35.9%
- inhibition at 16 µg/mL ([1]; 96 h, 16 mg/L, read-out: Actual Inhibition Rate E): 38.5%
- inhibition at 25 µg/mL ([1]; 96 h, 25 mg/L, read-out: Actual Inhibition Rate E): 57.8%
- inhibition at 33 µg/mL ([1]; 96 h, 33 mg/L, read-out: Actual Inhibition Rate E): 61.5%
- inhibition at 50 µg/mL ([1]; 96 h, 50 mg/L, read-out: Actual Inhibition Rate E): 63.3%
- inhibition at 100 µg/mL ([1]; 96 h, 100 mg/L, read-out: Actual Inhibition Rate E): 68.5%
- inhibition at 160 µg/mL ([1]; 96 h, 160 mg/L, read-out: Actual Inhibition Rate E): 79.3%
- colony count of Bacillus velezensis TCS001 [2]: comparable to that of the blank control
